From patent publication US20240317708A1, “INHIBITORS OF TRANSGLUTAMINASES” (ZEDIRA GMBH, priority 2021, published 2024)

Experiments:
[1] = biological target: T1, recombinant human transglutaminase 2 (Homo sapiens, UniProt P21980); assay: Transglutaminase assay (dansylcadaverine incorporation into dimethylcasein, DCC-assay); assay type: biochemical; details: recombinant human TG2 10 nM, dansylcadaverine/dimethylcasein, 37° C.
T1 construct: purchased Zedira T022
T1 sequence (P21980 1-687): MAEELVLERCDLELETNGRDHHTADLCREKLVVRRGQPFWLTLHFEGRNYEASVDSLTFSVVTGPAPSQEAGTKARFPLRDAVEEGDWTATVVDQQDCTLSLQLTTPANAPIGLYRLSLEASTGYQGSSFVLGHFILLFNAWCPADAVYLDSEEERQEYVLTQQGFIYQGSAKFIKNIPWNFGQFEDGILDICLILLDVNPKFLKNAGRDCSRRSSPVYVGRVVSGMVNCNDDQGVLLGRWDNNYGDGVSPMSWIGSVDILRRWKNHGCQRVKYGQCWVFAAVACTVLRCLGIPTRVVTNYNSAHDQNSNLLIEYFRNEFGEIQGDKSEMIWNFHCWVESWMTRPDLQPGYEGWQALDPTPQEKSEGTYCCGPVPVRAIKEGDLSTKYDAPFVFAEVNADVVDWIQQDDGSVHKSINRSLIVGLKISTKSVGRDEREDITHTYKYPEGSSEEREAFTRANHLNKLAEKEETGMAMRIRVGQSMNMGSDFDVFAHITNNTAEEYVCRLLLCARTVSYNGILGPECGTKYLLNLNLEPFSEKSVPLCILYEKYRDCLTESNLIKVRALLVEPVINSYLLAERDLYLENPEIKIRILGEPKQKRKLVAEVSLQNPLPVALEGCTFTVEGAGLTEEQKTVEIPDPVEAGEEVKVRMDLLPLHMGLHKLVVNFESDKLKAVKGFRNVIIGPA
Method: For the determination of potency of inhibitors against tissue transglutaminase, the incorporation of dansylcadaverine into dimethylcasein (Zedira product T036, Lorand et al., Anal Biochem, 1971, 44:221-31) was measured using recombinant human transglutaminase 2 (Zedira Product T022).
The tissue transglutaminase is diluted in buffer (50 mM Tris-HCl, 7.5 mM CaCl2, 150 mM NaCl, pH=7.4). The final concentration of TG2 in the assay is 10 nM.
A 10 mM inhibitor stock solution is prepared in DMSO, and from this a serial 1:2-fold dilution series is prepared also in DMSO. Each of the initial dilutions is subsequently diluted 1:50-fold with buffer (50 mM Tris-HCl, 7.5 mM CaCl2, 150 mM NaCl, pH=7.4) to yield the final working dilutions containing 2% (v/v) DMSO.
15 μl of inhibitor working dilution are added per well of a 96 well microtiter plate. As control, 15 μl of a 2% (v/v) DMSO solution prepared using the buffer mentioned above are added per well.
Immediately before starting the assay, 600 μl transglutaminase working solution are added to 11.4 ml assay buffer (50 mM Tris-HCl, 10 mM CaCl2, 10 mM glutathione, 2.5% glycerol, 16.7 μM dansylcadaverine, 4 μM N,N-dimethylcasein, 200 mM NaCl, pH=8.0). 285 μl of this reaction mix are added per well containing the inhibitor.
Increase in fluorescence is measured using λex=330 nm and λem=500 nm at 37° C. for 30 min. A slope of the increase in fluorescence between 20 and 30 min is calculated for determination of the IC50 value (inhibitor concentration at which 50% of the initial activity is blocked).
Analysis of enzymatic activity is performed by calculation of the slope of an increase in fluorescence intensity. IC50 values are calculated by plotting the enzymatic activity (as percentage from control containing 2% DMSO instead of inhibitor) against the inhibitor concentration. IC50 is defined as the inhibitor concentration blocking 50% of initial enzyme activity.

[2] = Log D shake flask method (octanol / PBS pH 7.4, HPLC); assay type: physicochemical; details: octanol/phosphate-buffered saline (PBS); octanol / PBS pH 7.4, shake flask
Method: In order to classify the inventive compounds according to their lipophilicity, Log D values (distribution coefficient) were determined by means of the well-established shake flask method, measuring the partition of a compound between an octanol and phosphate-buffered saline (PBS, pH 7.4) by HPLC.

[3] = Caco-2 permeability assay (CacoReady kit); assay type: in vitro ADME; details: human
Method: Permeability coefficients (Papp values) were obtained from Caco-2 barrier studies predicting oral/intestinal bioavailability of the tested compounds. The assays were performed by using CacoReady™ ready-to-use kits from ReadyCell according to the manufacturers protocol.

Compound: COC(=O)/C=C/CC[C@H](NC(=O)c1ncn(C)n1)C(=O)Nc1cccn(CC(=O)NC2C3CC4CC(C3)CC2C4)c1=O (stereo partly drawn) [III-105, (S,E)-methyl 7-(1-(2-(2-adamantylamino)-2-oxoethyl)-2-oxo-1,2-dihydropyridin-3-ylamino)-6-(1-methyl-1H-1,2,4-triazole-3-carboxamido)-7-oxohept-2-enoate]
- IC50 [1]: 25 to 250 nM
- logD [2]: 1 to 3
- Papp [3]: 1 to 10 ×10⁻⁶ cm/s

Compound: COC(=O)/C=C/CC[C@H](NC(=O)c1oc2ccccc2c1C)C(=O)Nc1cccn(CC(=O)NC2C3CC4CC2CC(O)(C4)C3)c1=O (stereo partly drawn) [III-38, (S,E)-methyl 7-(1-(2-(5-hydroxyadamantan-2-amino)-2-oxoethyl)-2-oxo-1,2-dihydropyridin-3-ylamino)-6-(3-methylbenzofuran-2-carboxamido)-7-oxohept-2-enoate]
- IC50 [1]: 25 to 250 nM
- logD [2]: 1 to 3
- Papp [3]: < 1 ×10⁻⁶ cm/s

Compound: COC(=O)/C=C/CC[C@H](NC(=O)c1sc(C(F)(F)F)nc1C)C(=O)Nc1cccn(CC(=O)N[C@H]2C[C@H]3CC[C@]2(C)C3(C)C)c1=O [III-127, (S,E)-methyl 6-(4-methyl-2-(trifluoromethyl)thiazole-5-carboxamido)-7-oxo-7-(2-oxo-1-(2-oxo-2-((1R,2S,4R)-1,7,7-trimethylbicyclo[2.2.1]heptan-2-ylamino)ethyl)-1,2-dihydropyridin-3-ylamino)hept-2-enoate]
- IC50 [1]: < 25 nM
- logD [2]: 3 to 5
- Papp [3]: 1 to 10 ×10⁻⁶ cm/s

Compound: COC(=O)/C=C/CC[C@H](NC(=O)c1cc2cccc(F)c2s1)C(=O)Nc1cccn(CC(=O)NC2C3CC4CC(C3)CC2C4)c1=O (stereo partly drawn) [III-7, (S,E)-methyl 6-(7-fluorobenzo[b]thiophene-2-carboxamido)-7-(1-(2-(2-adamantylamino)-2-oxoethyl)-2-oxo-1,2-dihydropyridin-3-ylamino)-7-oxohept-2-enoate]
- IC50 [1]: < 25 nM
- logD [2]: 3 to 5
- Papp [3]: 1 to 10 ×10⁻⁶ cm/s

Compound: COC(=O)/C=C/CC[C@H](NC(=O)c1cnn(C)c1)C(=O)Nc1cccn(CC(=O)NC2C3CC4CC(C3)CC2C4)c1=O (stereo partly drawn) [III-130, (S,E)-methyl 7-(1-(2-(2-adamantylamino)-2-oxoethyl)-2-oxo-1,2-dihydropyridin-3-ylamino)-6-(1-methyl-1H-pyrazole-4-carboxamido)-7-oxohept-2-enoate]
- IC50 [1]: 25 to 250 nM
- logD [2]: 1 to 3
- Papp [3]: < 1 ×10⁻⁶ cm/s

Compound: COC(=O)/C=C/CC[C@H](NC(=O)c1cncn1C)C(=O)Nc1cccn(CC(=O)N[C@@H]2C[C@@H]3CC[C@H]2C3)c1=O [III-58, (S,E)-methyl 7-(1-(2-((1S,2R,4R)-bicyclo[2.2.1]heptan-2-ylamino)-2-oxoethyl)-2-oxo-1,2-dihydropyridin-3-ylamino)-6-(1-methyl-1H-imidazole-5-carboxamido)-7-oxohept-2-enoate]
- IC50 [1]: < 25 nM
- logD [2]: 1 to 3
- Papp [3]: < 1 ×10⁻⁶ cm/s

Compound: COC(=O)/C=C/CC[C@H](NC(=O)c1[nH]c2ccccc2c1C)C(=O)Nc1cccn(CC(=O)NC2C3CC4CC(C3)CC2C4)c1=O (stereo partly drawn) [III-10, (S,E)-methyl 7-(1-(2-(2-adamantylamino)-2-oxoethyl)-2-oxo-1,2-dihydropyridin-3-ylamino)-6-(3-methyl-1H-indole-2-carboxamido)-7-oxohept-2-enoate]
- IC50 [1]: < 25 nM
- logD [2]: 3 to 5
- Papp [3]: 1 to 10 ×10⁻⁶ cm/s

Compound: COC(=O)/C=C/CC[C@H](NC(=O)c1snnc1C1CC1)C(=O)Nc1cccn(CC(=O)NC23CC(C2)C3)c1=O [III-172, (S,E)-methyl 7-(1-(2-(bicyclo[1.1.1]pentan-1-ylamino)-2-oxoethyl)-2-oxo-1,2-dihydropyridin-3-ylamino)-6-(4-cyclopropyl-1,2,3-thiadiazole-5-carboxamido)-7-oxohept-2-enoate]
- IC50 [1]: 25 to 250 nM
- logD [2]: < 1
- Papp [3]: < 1 ×10⁻⁶ cm/s

Compound: COC(=O)/C=C/CC[C@H](NC(=O)c1csc2ccccc12)C(=O)Nc1cccn(CC(=O)NC2C3CC4CC(C3)CC2C4)c1=O (stereo partly drawn) [III-107, (S,E)-methyl 6-(benzo[b]thiophene-3-carboxamido)-7-(1-(2-(2-adamantylamino)-2-oxoethyl)-2-oxo-1,2-dihydropyridin-3-ylamino)-7-oxohept-2-enoate]
- IC50 [1]: 25 to 250 nM
- logD [2]: 3 to 5
- Papp [3]: 1 to 10 ×10⁻⁶ cm/s

Compound: CCOC(=O)/C=C/CC[C@H](NC(=O)c1oc2ccccc2c1C)C(=O)Nc1cccn(CC(=O)NC2C3CC4CC(C3)CC2C4)c1=O (stereo partly drawn) [III-89, (S,E)-ethyl 7-(1-(2-(2-adamantylamino)-2-oxoethyl)-2-oxo-1,2-dihydropyridin-3-ylamino)-6-(3-methylbenzofuran-2-carboxamido)-7-oxohept-2-enoate]
- IC50 [1]: < 25 nM
- logD [2]: 3 to 5
- Papp [3]: 1 to 10 ×10⁻⁶ cm/s

Compound: COC(=O)/C=C/CC[C@H](NC(=O)c1sc(C(F)(F)F)nc1C)C(=O)Nc1cccn(CC(=O)N[C@@H]2C[C@@H]3CC[C@H]2C3)c1=O [III-125, (S,E)-methyl 7-(1-(2-((1S,2R,4R)-bicyclo[2.2.1]heptan-2-ylamino)-2-oxoethyl)-2-oxo-1,2-dihydropyridin-3-ylamino)-6-(4-methyl-2-(trifluoromethyl)thiazole-5-carboxamido)-7-oxohept-2-enoate]
- IC50 [1]: < 25 nM
- logD [2]: 1 to 3
- Papp [3]: 1 to 10 ×10⁻⁶ cm/s

Compound: Cc1c(C(=O)N[C@@H](CC/C=C/C(=O)N(C)C)C(=O)Nc2cccn(CC(=O)NC3C4CC5CC(C4)CC3C5)c2=O)oc2ccccc12 (stereo partly drawn) [III-75, (S,E)-N^7-(1-(2-(2-adamantylamino)-2-oxoethyl)-2-oxo-1,2-dihydropyridin-3-yl)-N^1,N^1-dimethyl-6-(3-methylbenzofuran-2-carboxamido)hept-2-enediamide]
- IC50 [1]: 25 to 250 nM
- logD [2]: 3 to 5
- Papp [3]: 1 to 10 ×10⁻⁶ cm/s

Compound: COC(=O)/C=C/CC[C@H](NC(=O)c1sc(C(F)(F)F)nc1C)C(=O)Nc1cccn(CC(=O)NC2C3CC4CC(C3)CC2C4)c1=O (stereo partly drawn) [III-14, (S,E)-methyl 7-(1-(2-(2-adamantylamino)-2-oxoethyl)-2-oxo-1,2-dihydropyridin-3-ylamino)-6-(4-methyl-2-(trifluoromethyl)thiazole-5-carboxamido)-7-oxohept-2-enoate]
- IC50 [1]: < 25 nM
- logD [2]: 3 to 5
- Papp [3]: 1 to 10 ×10⁻⁶ cm/s

Compound: O=C(/C=C/CC[C@H](NC(=O)c1nc(Br)cs1)C(=O)Nc1cccn(CC(=O)NC23CC(C2)C3)c1=O)NCc1ccccc1 [III-155, (S,E)-N1-benzyl-N7-(1-(2-(bicyclo[1.1.1]pentan-1-ylamino)-2-oxoethyl)-2-oxo-1,2-dihydropyridin-3-yl)-6-(4-bromothiazole-2-carboxamido)hept-2-enediamide]
- IC50 [1]: 25 to 250 nM
- logD [2]: 1 to 3
- Papp [3]: 1 to 10 ×10⁻⁶ cm/s

Compound: CC(C)OC(=O)/C=C/CC[C@H](NC(=O)c1cn[nH]n1)C(=O)Nc1cccn(CC(=O)NC23CCC(C2)C3)c1=O [III-158, (S,E)-isopropyl 7-(1-(2-(bicyclo[2.1.1]hexan-1-ylamino)-2-oxoethyl)-2-oxo-1,2-dihydropyridin-3-ylamino)-7-oxo-6-(2H-1,2,3-triazole-4-carboxamido)hept-2-enoate]
- IC50 [1]: 250 to 1500 nM
- logD [2]: < 1
- Papp [3]: < 1 ×10⁻⁶ cm/s

Compound: COC(=O)/C=C/CC[C@H](NC(=O)c1snnc1C)C(=O)Nc1cccn(CC(=O)NC23CC4(C)CC(C)(CC(C)(C4)C2)C3)c1=O [III-108, (S,E)-methyl 7-(1-(2-(3,5,7-trimethyl-1-adamantylamino)-2-oxoethyl)-2-oxo-1,2-dihydropyridin-3-ylamino)-6-(4-methyl-1,2,3-thiadiazole-5-carboxamido)-7-oxohept-2-enoate]
- IC50 [1]: < 25 nM
- logD [2]: 3 to 5
- Papp [3]: < 1 ×10⁻⁶ cm/s
